{"source": "ChEMBL document CHEMBL1201862", "about": "“PubChem BioAssay data set” (2004)", "assay_in_all_cases": "DTP human tumour cell line panel, 48 h", "key": {"A498": {"system": "A498"}, "CCRF-CEM": {"system": "CCRF-CEM"}, "EKVX": {"system": "EKVX"}, "HCT-15": {"system": "HCT-15"}, "HOP-62": {"system": "HOP-62"}, "IGROV-1": {"system": "IGROV-1"}, "K562": {"system": "K562"}, "M14": {"system": "M14"}, "MOLT-4": {"system": "MOLT-4"}, "NCI-H226": {"system": "NCI-H226"}, "NCI-H23": {"system": "NCI-H23"}, "OVCAR-4": {"system": "OVCAR-4"}, "OVCAR-5": {"system": "OVCAR-5"}, "OVCAR-8": {"system": "OVCAR-8"}, "SF-539": {"system": "SF-539"}, "SK-OV-3": {"system": "SK-OV-3"}, "TK-10": {"system": "TK-10"}, "U-251": {"system": "U-251"}, "MCF7": {"system": "MCF7"}}, "note": "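Growth conditions: 96-well plates. Treatment: test compound, 48 hours, 5 concentrations. Analysis: linear interpolation between bracketing concentrations; unreached endpoints set to highest concentration. GI50: concentration for 50% inhibition of growth.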 Calls of active or inactive are those of the source. No stated cut-off is given here; in the data, active = GI50 up to about 1.1 µM and inactive = higher."}
{"compound": "O=C(c1ccccc1)c1ccc2c(c1)N=C(c1ccc(Cl)c(Cl)c1)CC(c1ccc3ccccc3c1)N2", "note": "(configuration not stated)", "values": [{"measurement": "GI50", "setting": "A498", "result": "> 100 µM (inactive)"}, {"measurement": "GI50", "setting": "CCRF-CEM", "result": "67.6 µM (inactive)"}, {"measurement": "GI50", "setting": "EKVX", "result": "> 100 µM (inactive)"}, {"measurement": "GI50", "setting": "HCT-15", "result": "> 100", "unit": "µM"}, {"measurement": "GI50", "setting": "HOP-62", "result": "> 100 µM (inactive)"}, {"measurement": "GI50", "setting": "IGROV-1", "result": "> 100 µM (inactive)"}, {"measurement": "GI50", "setting": "K562", "result": "> 100 µM (inactive)"}, {"measurement": "GI50", "setting": "M14", "result": "> 100 µM (inactive)"}, {"measurement": "GI50", "setting": "MOLT-4", "result": "> 100 µM (inactive)"}, {"measurement": "GI50", "setting": "NCI-H226", "result": "> 100 µM (inactive)"}, {"measurement": "GI50", "setting": "NCI-H23", "result": "> 100 µM (inactive)"}, {"measurement": "GI50", "setting": "OVCAR-4", "result": "> 100 µM (inactive)"}, {"measurement": "GI50", "setting": "OVCAR-5", "result": "> 100 µM (inactive)"}, {"measurement": "GI50", "setting": "OVCAR-8", "result": "> 100 µM (inactive)"}, {"measurement": "GI50", "setting": "SF-539", "result": "> 100 µM (inactive)"}, {"measurement": "GI50", "setting": "SK-OV-3", "result": "> 100 µM (inactive)"}, {"measurement": "GI50", "setting": "TK-10", "result": "> 100 µM (inactive)"}, {"measurement": "GI50", "setting": "U-251", "result": "> 100 µM (inactive)"}]}
{"compound": "COc1ccc(NC(=O)/C(Cc2cc(=O)oc3cc(O)ccc23)=N\\NC(C)(C)C)c(OC)c1", "values": [{"measurement": "GI50", "setting": "A498", "result": "22.8 µM (inactive)"}, {"measurement": "GI50", "setting": "CCRF-CEM", "result": "> 100 µM (inactive)"}, {"measurement": "GI50", "setting": "EKVX", "result": "12.6 µM (inactive)"}, {"measurement": "GI50", "setting": "HCT-15", "result": "> 100", "unit": "µM"}, {"measurement": "GI50", "setting": "HOP-62", "result": "> 100 µM (inactive)"}, {"measurement": "GI50", "setting": "IGROV-1", "result": "> 100 µM (inactive)"}, {"measurement": "GI50", "setting": "K562", "result": "> 100 µM (inactive)"}, {"measurement": "GI50", "setting": "M14", "result": "> 100 µM (inactive)"}, {"measurement": "GI50", "setting": "MOLT-4", "result": "> 100 µM (inactive)"}, {"measurement": "GI50", "setting": "NCI-H226", "result": "> 100 µM (inactive)"}, {"measurement": "GI50", "setting": "NCI-H23", "result": "> 100 µM (inactive)"}, {"measurement": "GI50", "setting": "OVCAR-4", "result": "> 100 µM (inactive)"}, {"measurement": "GI50", "setting": "OVCAR-5", "result": "> 100 µM (inactive)"}, {"measurement": "GI50", "setting": "OVCAR-8", "result": "> 100 µM (inactive)"}, {"measurement": "GI50", "setting": "SF-539", "result": "> 100 µM (inactive)"}, {"measurement": "GI50", "setting": "SK-OV-3", "result": "> 100 µM (inactive)"}, {"measurement": "GI50", "setting": "TK-10", "result": "> 100 µM (inactive)"}, {"measurement": "GI50", "setting": "U-251", "result": "> 100 µM (inactive)"}]}
{"compound": "C=CCCC1(C)CCCNC1=S", "note": "(configuration not stated)", "values": [{"measurement": "GI50", "setting": "A498", "result": "> 100 µM (inactive)"}, {"measurement": "GI50", "setting": "CCRF-CEM", "result": "17.7 µM (inactive)"}, {"measurement": "GI50", "setting": "EKVX", "result": "> 100 µM (inactive)"}, {"measurement": "GI50", "setting": "HCT-15", "result": "> 100", "unit": "µM"}, {"measurement": "GI50", "setting": "HOP-62", "result": "> 100 µM (inactive)"}, {"measurement": "GI50", "setting": "IGROV-1", "result": "> 100 µM (inactive)"}, {"measurement": "GI50", "setting": "K562", "result": "> 100 µM (inactive)"}, {"measurement": "GI50", "setting": "M14", "result": "> 100 µM (inactive)"}, {"measurement": "GI50", "setting": "MOLT-4", "result": "> 100 µM (inactive)"}, {"measurement": "GI50", "setting": "NCI-H226", "result": "> 100 µM (inactive)"}, {"measurement": "GI50", "setting": "NCI-H23", "result": "> 100 µM (inactive)"}, {"measurement": "GI50", "setting": "OVCAR-4", "result": "> 100 µM (inactive)"}, {"measurement": "GI50", "setting": "OVCAR-5", "result": "> 100 µM (inactive)"}, {"measurement": "GI50", "setting": "OVCAR-8", "result": "> 100 µM (inactive)"}, {"measurement": "GI50", "setting": "SF-539", "result": "> 100 µM (inactive)"}, {"measurement": "GI50", "setting": "SK-OV-3", "result": "> 100 µM (inactive)"}, {"measurement": "GI50", "setting": "TK-10", "result": "> 100 µM (inactive)"}, {"measurement": "GI50", "setting": "U-251", "result": "> 100 µM (inactive)"}]}
{"compound": "COc1ccc2[nH]c(=O)cc(C)c2c1[N+](=O)[O-]", "values": [{"measurement": "GI50", "setting": "A498", "result": "54.8 µM (inactive)"}, {"measurement": "GI50", "setting": "CCRF-CEM", "result": "> 100 µM (inactive)"}, {"measurement": "GI50", "setting": "EKVX", "result": "82 µM (inactive)"}, {"measurement": "GI50", "setting": "HCT-15", "result": "> 100", "unit": "µM"}, {"measurement": "GI50", "setting": "HOP-62", "result": "> 100 µM (inactive)"}, {"measurement": "GI50", "setting": "IGROV-1", "result": "> 100 µM (inactive)"}, {"measurement": "GI50", "setting": "K562", "result": "> 100 µM (inactive)"}, {"measurement": "GI50", "setting": "M14", "result": "> 100 µM (inactive)"}, {"measurement": "GI50", "setting": "MOLT-4", "result": "> 100 µM (inactive)"}, {"measurement": "GI50", "setting": "NCI-H226", "result": "> 100 µM (inactive)"}, {"measurement": "GI50", "setting": "NCI-H23", "result": "> 100 µM (inactive)"}, {"measurement": "GI50", "setting": "OVCAR-4", "result": "> 100 µM (inactive)"}, {"measurement": "GI50", "setting": "OVCAR-5", "result": "> 100 µM (inactive)"}, {"measurement": "GI50", "setting": "OVCAR-8", "result": "> 100 µM (inactive)"}, {"measurement": "GI50", "setting": "SF-539", "result": "> 100 µM (inactive)"}, {"measurement": "GI50", "setting": "SK-OV-3", "result": "> 100 µM (inactive)"}, {"measurement": "GI50", "setting": "TK-10", "result": "> 100 µM (inactive)"}, {"measurement": "GI50", "setting": "U-251", "result": "> 100 µM (inactive)"}]}
{"compound": "CCN(CC)CCNC(=O)c1ccc([N+](=O)[O-])cc1OC", "values": [{"measurement": "GI50", "setting": "A498", "result": "> 100 µM (inactive)"}, {"measurement": "GI50", "setting": "CCRF-CEM", "result": "> 100 µM (inactive)"}, {"measurement": "GI50", "setting": "EKVX", "result": "> 100 µM (inactive)"}, {"measurement": "GI50", "setting": "HCT-15", "result": "> 100", "unit": "µM"}, {"measurement": "GI50", "setting": "HOP-62", "result": "> 100 µM (inactive)"}, {"measurement": "GI50", "setting": "IGROV-1", "result": "> 100 µM (inactive)"}, {"measurement": "GI50", "setting": "K562", "result": "> 100 µM (inactive)"}, {"measurement": "GI50", "setting": "M14", "result": "> 100 µM (inactive)"}, {"measurement": "GI50", "setting": "MOLT-4", "result": "> 100 µM (inactive)"}, {"measurement": "GI50", "setting": "NCI-H226", "result": "> 100 µM (inactive)"}, {"measurement": "GI50", "setting": "NCI-H23", "result": "> 100 µM (inactive)"}, {"measurement": "GI50", "setting": "OVCAR-4", "result": "> 100 µM (inactive)"}, {"measurement": "GI50", "setting": "OVCAR-5", "result": "> 100 µM (inactive)"}, {"measurement": "GI50", "setting": "OVCAR-8", "result": "> 100 µM (inactive)"}, {"measurement": "GI50", "setting": "SF-539", "result": "> 100 µM (inactive)"}, {"measurement": "GI50", "setting": "SK-OV-3", "result": "> 100 µM (inactive)"}, {"measurement": "GI50", "setting": "TK-10", "result": "> 100 µM (inactive)"}, {"measurement": "GI50", "setting": "U-251", "result": "> 100 µM (inactive)"}]}
{"compound": "Sc1nn2c(COc3ccc(Cl)cc3)nnc2s1", "values": [{"measurement": "GI50", "setting": "EKVX", "result": "> 100 µM (inactive)"}, {"measurement": "GI50", "setting": "HCT-15", "result": 81.8, "unit": "µM"}, {"measurement": "GI50", "setting": "HOP-62", "result": "> 100 µM (inactive)"}, {"measurement": "GI50", "setting": "IGROV-1", "result": "> 100 µM (inactive)"}, {"measurement": "GI50", "setting": "K562", "result": "> 100 µM (inactive)"}, {"measurement": "GI50", "setting": "M14", "result": "> 100 µM (inactive)"}, {"measurement": "GI50", "setting": "MCF7", "result": "> 100 µM (inactive)"}, {"measurement": "GI50", "setting": "MOLT-4", "result": "> 100 µM (inactive)"}, {"measurement": "GI50", "setting": "NCI-H226", "result": "> 100 µM (inactive)"}, {"measurement": "GI50", "setting": "NCI-H23", "result": "> 100 µM (inactive)"}, {"measurement": "GI50", "setting": "OVCAR-4", "result": "> 100 µM (inactive)"}, {"measurement": "GI50", "setting": "OVCAR-5", "result": "> 100 µM (inactive)"}, {"measurement": "GI50", "setting": "OVCAR-8", "result": "> 100 µM (inactive)"}, {"measurement": "GI50", "setting": "SF-539", "result": "> 100 µM (inactive)"}, {"measurement": "GI50", "setting": "SK-OV-3", "result": "> 100 µM (inactive)"}, {"measurement": "GI50", "setting": "TK-10", "result": "> 100 µM (inactive)"}, {"measurement": "GI50", "setting": "U-251", "result": "> 100 µM (inactive)"}]}
